Measured values taken from ChEMBL document CHEMBL1124075, “Design, synthesis, and biological activity of a peptide mimic of vasopressin” (J Med Chem, 1988).
Bridge positions count the residues as written; N and C are the ends. Square brackets hold non-standard residues; d marks the D form. Peptide text beside a SMILES is read from it. Mpa = O=C(O)CCS

Legend:
[1] = target: Vasopressin V2 receptor (Sus scrofa) (UniProt P32307); assay: Vasopressin V2 receptor binding affinity measured by competition with tritiated LVP lysine vasopressin in pig renal medullary preparation; settings: Renal medulla
Vasopressin V2 receptor (Sus scrofa), sequence (P32307 whole entry): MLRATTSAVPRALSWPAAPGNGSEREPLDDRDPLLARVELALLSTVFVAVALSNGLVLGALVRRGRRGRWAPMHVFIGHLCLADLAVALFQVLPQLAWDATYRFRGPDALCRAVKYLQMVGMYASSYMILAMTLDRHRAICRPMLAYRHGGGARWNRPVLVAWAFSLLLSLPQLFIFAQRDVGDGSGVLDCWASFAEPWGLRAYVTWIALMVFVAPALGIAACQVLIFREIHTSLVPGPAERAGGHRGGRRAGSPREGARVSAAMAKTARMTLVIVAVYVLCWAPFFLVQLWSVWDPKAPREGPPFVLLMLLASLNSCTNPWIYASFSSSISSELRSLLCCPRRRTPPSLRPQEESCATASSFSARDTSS

[2] = target: Vasopressin V2 receptor (Sus scrofa, UniProt P32307); assay: Inhibition of LVP-sensitive adenylate cyclase in a pig renal medullary preparation; format: tissue-based, Renal medulla
Vasopressin V2 receptor, sequence (P32307 whole entry): as above

| K bind [1] | Ki [2] | SMILES |
| --- | --- | --- |
| 15 µM | 7 µM | CC(C)[C@@H]1NC(=O)[C@H](Cc2ccccc2)NC(=O)[C@H](Cc2ccccc2)NC(=O)CCC[C@@H](C(=O)N2CCC[C@H]2C(=O)N[C@@H](CCCN=C(N)N)C(=O)NCC(N)=O)NC(=O)[C@H](CC(N)=O)NC1=O |
| 0.1 µM | 0.01 µM | CC(C)[C@@H]1NC(=O)[C@H](Cc2ccccc2)NC(=O)[C@H](Cc2ccccc2)NC(=O)CCSSC[C@@H](C(=O)N2CCC[C@H]2C(=O)N[C@@H](CCCN=C(N)N)C(=O)NCC(N)=O)NC(=O)[C@H](CC(N)=O)NC1=O ([Mpa]FFVNCPRG-NH2; disulfide 1-6) |
| 29 µM | 9.2 µM | CC(C)[C@@H]1NC(=O)[C@H](Cc2ccccc2)NC(=O)[C@H](Cc2ccccc2)NC(=O)CCC[C@H](C(=O)N2CCC[C@H]2C(=O)N[C@@H](CCCN=C(N)N)C(=O)NCC(N)=O)NC(=O)[C@H](CC(N)=O)NC1=O |
